Patent publication US20080194877A1, “Benzamidine Derivatives for Treatment and Prevention of Cancer Therapy Induced Mucositis” ([…].p.A., priority 2005, published 2008)
“And” between values parts separate entries of the source, which are not always exact repeats. Identical values can stand only once. Like-named read-outs stand apart in the source and are kept apart here.

Assays:
[1] = system: IL-6; assay: LPS-induced IL-6 release in rat peritoneal macrophages; assay type: cell-based; conditions: LPS 1 μg/ml, 24 h
Text: (§1) Background to the assay: Nuclear factor-κB (NF-κB), a key element in the genesis of mucositis, has the capacity to upregulate a large panel of genes, including those that result in the production of pro-inflammatory cytokines, TNFα, IL-1 and IL-6, all leading to apoptosis and tissue injury, and to up-regulate genes that can cause the expression of iNOS and cyclooxygnase-2. The third phase of mucositis is indeed characterized by the amplification of signaling triggered by pro-inflammatory cytokines. The effect of compound 1.1 was assessed in rat peritoneal macrophages.
(§2) Primary cell cultures were obtained from male albino rats (SD, 200-250 g, Harlan, Italy), as described in Methods in Enzymology (Methods in Enzymology, vol. LVIII, pages 494-506). Cells were stimulated, the day after plating, with LPS, 1 μg/ml or 0.1 μg/ml as stated, for 24 h. Compounds were added 20 min before stimulation. The stimulation was performed in DMEM, 1 g/l glucose, 50 μg/ml gentamicin. Supernatants and cell lysates were collected and stored at −80° C. until use. Cytokine quantisation in supernatants was determined by means of commercially available ELISA Kits for rat TNFα, rat IL-1β and rat IL-6 (Amersham).
(§3) Activation of macrophages with 1 μg/ml LPS induced an increase over basal in cytokine production.

[2] = system: TNFα; assay: LPS-induced TNFα release in rat peritoneal macrophages; assay type: cell-based; conditions: LPS 1 μg/ml, 24 h
Text: as §1, §2, §3

[3] = system: rat gastric mucosa; assay: Gastric ulcer induced by indomethacin in rat; assay type: in vivo
Text: Indomethacin induces the formation of acute gastric mucosal lesions. The histologic damage is represented by necrosis with loss of surface epithelium, submucosal oedema and leukocyte infiltration. The mechanism involves a neutrophil-dependent process inducing a variety of inflammatory mediators such as reactive oxygen species, and direct detrimental action by indomethacin on processes linked to epithelial proliferation and apoptosis. The epithelial repairing process is due to continuity of epithelial cells with healthy cells of gastric pits that can migrate to the basement membrane; re-epithelialization and reconstruction of the mucosal architecture is under the control of growth factors produced locally by regenerating cells.
20 male SD rats (140-160) were used. The animals were deprived of food but not water 24 hours prior the experiment. Gastric ulcer was induced in conscious rats by oral administration of 10 mg/kg/4 ml of indomethacin, suspended in methylcellulose 0.5%. The tested drug was administered 30 min by gavage (os), or 15 min by subcutaneously (sc), before indomethacin.
Four hours after indomethacin administration, the animals were sacrificed by excess of ether. The stomach was dissected out, opened along the greater curvature, and the mucosa was examined by an observer who was unaware of the treatment given. The extent of ulcers was measured with a 10× binocular fitted with a 0.1 mm-division scale. Data are presented as total length of ulcers per group.
The animals were divided into 4 groups of 5 animals, and were treated as follows:
Groups: • 1. 10 mg/kg Compound 1.1, administered prior to 10 mg/kg indomethacin, os. • 2. 5 mg/kg Compound 1.1, administered prior to 10 mg/kg indomethacin, os. • 3. 1 mg/kg Compound 1.1, administered prior to 10 mg/kg indomethacin, os. • 4. vehicle, administered prior to 10 mg/kg indomethacin, os.
Compound 1.1 was given at 1, 5 and 10 mg/kg prior to indomethacin. […] In Compound 1.1 treated groups the levels of ulcerated animals decreased dose-dependently.

[4] = system: COX-2 protein expression; assay: LPS-induced COX-2 protein expression in rat macrophages (Western blot); assay type: cell-based; conditions: 30 μM; LPS 0.1 μg/ml, 24 h
Procedure: as §2
(§4) Western blot analysis of iNOS and COX-2: Cell lysates were analyzed by SDS-PAGE. Proteins were transferred onto PVDF membranes and saturated in blocking buffer. Membranes were incubated for 2 h at RT with the following antibodies: anti-COX-2, anti-iNOS, anti-β-actin and further incubated with a secondary antibody for 45 min at RT. Detection was performed using ECL (Amersham). Quantisation was determined by densitometry analysis using NIH Image software.
(§5) Evaluation of mediator of inflammation such as iNOS and COX-2, was performed in macrophages stimulated with 0.1 μg/ml LPS for 24 h. […]

[5] = system: iNOs protein expression; assay: LPS-induced iNOS protein expression in rat macrophages (Western blot); assay type: cell-based; conditions: 30 μM; LPS 0.1 μg/ml, 24 h
Procedure: as §2, §4, §5

[6] = system: IL-1β; assay: LPS-induced IL-1β release in rat peritoneal macrophages; assay type: cell-based; conditions: LPS 1 μg/ml, 24 h
Text: as §1, §2, §3

[7] = system: ROS generation in human PMNL; assay: Inhibition of luminol-dependent chemiluminescence (ROS generation) in PMA-activated human PMNL; assay type: cell-based; conditions: for IC50: 0.1 μM PMA
Procedure: Background to the assay: One of the most important events involved in the intracellular cascade leading to NF-kB activation is the generation of oxidative stress and the increase of ROS; the inhibition of these species can contribute to reduce the direct damage to DNA and subsequent clonogenic cell death, and also to diminish the transcription factors activation. The effect of compound 1.1 on luminol-dependent chemiluminescence assay was assessed in human PMNL.
Human neutrophils were obtained from healthy volunteers. Blood was anti-coagulated with Na-Citrate 0.38% and neutrophils were purified according to Boyum (Boyum A. Scand J Clin Invest 1968;21:77-89). The neutrophil purification was achieved by gradient centrifugation on Histo-paque at 400 g for 30 min. Resulting neutrophils were suspended in PBS plus 0.87 mM CaCl2, 1 mM MgCl2, counted, and diluted to 2.5×10^6/ml. Neutrophil suspension was premixed with luminol (5 μM final). A 200 μl-aliquot of cell suspension was incubated into a 96-well plate, with drugs for 10 min at 37° C. Neutrophils were activated with 0.1 μM phorbol 12-myristate 13-acetate (PMA) and the light emission was monitored at 3 min intervals for 24 min in a HTS7000 plus microplate reader. Results were expressed as reduction of the fluorescent signal recorded for cell activated with PMA alone.
Activation of neutrophils with 0.1 μM PMA induced a time-dependent increase in signal luminescence, with a maximal increase within 10-12 min. […] The data are illustrated in FIG. 1.

[8] = system: clonogenic crypt cells of the small intestine; assay: Mouse mucositis model (clonogenic crypt cell death induced by whole body irradiation); assay type: in vivo; conditions: for crypt width (μm) / no. crypts/circumference: average +/− sd; for corrected crypts/circumference: corrected for crypt width
Text: There are thought to be between four and sixteen actual stem cells in each crypt of the small intestine. There are also a further reserve of clonogenic cells which are capable of regenerating the crypt when all the actual stem cells have been killed. The survival of these clonogenic cells is therefore key to the survival of the crypt and the restoration of an intact epithelial lining following cytotoxic injury (only one clonogenic cell needs to survive to ensure the survival of the crypt, and therefore the maintenance of an intact epithelium). Growth factors and other molecules can be used to manipulate the sensitivity of these cells to cytotoxic agents, and thereby reduce the severity of gastrointestinal and oral mucositis. Factors given prior to a cytotoxic insult may increase clonogenic cell number (thereby increasing the probability of clonogen survival) or act to arrest the cell cycle in such cells (thereby making them more resistant to damage or death). […] A combination of both protocols could give maximum protection to the epithelium.
The effects of administration for 3 days before radiation exposure were tested.
30 adult male BDF1 mice (aged 10-12 weeks) were used. The animals were housed for 2 weeks in individually ventilated cages on a 12 hr light:dark cycle to stabilize the circadian rhythm. Animals were allowed food and water ad libitum throughout.
The animals were divided into 5 groups of 6 animals, and were treated as follows:
Groups: • 1. Gavage 20 mg/kg Compound 1.1 72, 48 and 24 hrs prior to 13Gy X-ray exposure (whole body). • 2. Gavage 10 mg/kg Compound 1.1 72, 48 and 24 hrs prior to 13Gy X-ray exposure (whole body). • 3. Gavage 5 mg/kg Compound 1.1 72, 48 and 24 hrs prior to 13Gy X-ray exposure (whole body). • 4. Gavage vehicle 72, 48 and 24 hrs prior to 13Gy X-ray exposure (whole body). • 5. Untreated, un-irradiated controls.
Intestinal damage was induced using a single dose of 13Gy X-irradiation. Four days after irradiation the animals were sacrificed. The small intestine was removed and fixed in Carnoy's fixative prior to processing for histological analysis. 3 μm sections were cut and stained with haematoxylin and eosin. Foci of regeneration (surviving crypts with one or more clonogenic cells) were clearly visible in the irradiated sections. Other than these foci the mesenchyme was entirely denuded; these animals would develop diarrhea and die due to mucositis if allowed to live beyond four days.
For each animal ten intestinal circumferences were analyzed (60 per group)—a circumference is equivalent to a given length of intestine and therefore a convenient baseline unit of length. The number of surviving crypts per circumference was scored and the average per group determined. Only crypts containing 10 or more strongly haematoxylin and eosin stained cells (excluding Paneth cells) and only intact circumferences not containing Peyers patches were scored (Peyers patches influence both the number of crypts in a normal circumference and the ability of a crypt to survive insult).
The average crypt width (measured at its widest point) was also measured in order to correct for scoring errors due to crypt size difference. The correction is applied thus: Corrected number of crypts/circumference=

[9] = 25° C.
[10] = 5 mg/kg, both administration protocols (os, sc)
[11] = 5 mg/kg gavage for 3 days pre 13Gy irradiation
[12] = 10 mg/kg gavage for 3 days pre 13Gy irradiation
[13] = 20 mg/kg gavage for 3 days pre 13Gy irradiation

CCCCCNC(=S)Nc1ccc(NC(C)=N)cc1 [Compound 1.1, N-[4-(N-acetamidine)phenyl]-N′-pentyl thiourea]
IC50 [1]: 63 µM | IC50 [2]: 54 µM | Effectiveness against ulcer at the lower dose ([3]; 1 mg/kg): effective only in the os protocol administration | Reduction of extent of ulceration ([3]; 5 mg/kg): 80-90% | Incidence of ulcer (animals per group) [3, 10]: 3/5 | Incidence of ulcer reduced to [3, 10]: ~50% | Ulcerated animals (maximal effect) ([3]; 10 mg/kg prior to 10 mg/kg indomethacin): no animals ulcerated | Survival and adverse effects ([3]; rat, 1, 5 and 10 mg/kg): no obvious adverse effects | % of inhibition COX-2 protein expression [4]: 53% | % of inhibition iNOs protein expression [5]: 79% | IC50 [6]: 30 µM | % of inhibition of chemiluminescence ([7]; 1 μM): 20% | Inhibition of ROS generation ([7]; 30 μM (data not shown)): completely inhibited ROS generation | IC50 ([7]; rising phase, at 15 min, read-out: IC50 luminol-enhanced chemiluminescence, rising phase): 6.4 ± 0.6 µM | IC50 ([7]; steady phase, at 24 min, read-out: IC50 luminol-enhanced chemiluminescence, steady phase): 2.9 ± 0.2 µM | crypt width (μm) [8, 11]: 68.54 +/− 6.6 μm | no. crypts/circumference [8, 11]: 9.6 +/− 3.4 | corrected crypts/circumference [8, 11]: 4.7 +/− 1.3 | crypt width (μm) [8, 12]: 68.25 +/− 2.4 μm | no. crypts/circumference [8, 12]: 9.2 +/− 4.7 | corrected crypts/circumference [8, 12]: 4.5 +/− 2.4 | Increase of crypt survival versus vehicle ([8]; 20 mg/kg): 1.9 × | crypt width (μm) [8, 13]: 66.19 +/− 3.0 μm | no. crypts/circumference [8, 13]: 13.2 +/− 5.7 | corrected crypts/circumference [8, 13]: 6.7±3.0 and 6.7 +/− 3.0 | Circumferences without surviving crypt ([8]; 20 mg/kg, 4% of circumference in vehicle treated mouse): prevented the absence of surviving crypt | Increase of crypt survival versus vehicle ([8]; lower doses (5 and 10 mg/kg)): about 1.3 times | Survival and adverse effects ([8]; mouse, 5, 10 and 20 mg/kg): no obvious adverse effects

CCCCCNC(=S)Nc1ccc(NC(C)=N)cc1.CS(=O)(=O)O [Methanesulphonate, N-[4-(N-acetamidine)phenyl]-N′-pentyl thiourea methanesulphonate]
Solubility in water [9]: >32 mg/mL | Solubility in water (%) [9]: >32%

CCCCCNC(=S)Nc1ccc(NC(C)=N)cc1.O=C(O)/C=C\C(=O)O [Maleate, N-[4-(N-acetamidine)phenyl]-N′-pentyl thiourea maleate]
Solubility in water [9]: 3.12 mg/mL | Solubility in water (%) [9]: 0.31%
